How the values were obtained:
[1] = test system: foot tapping in gerbils induced by central infusion of NK-1 receptor agonists such as GR73632; test: Gerbil foot-tapping (Assay 2); assay type: in vivo, Mongolian gerbils; conditions: i.v.
From the text: ASSAY 2: Gerbil Foot-Tapping
CNS-penetrant NK-1 receptor antagonists for use in the present invention can be identified by their ability to inhibit foot tapping in gerbils induced by central infusion of NK-1 receptor agonists such as GR73632, based on the method of Rupniak & Williams, Eur. J. Pharmacol., 1994, 265, 179.
Male or female Mongolian gerbils (35-70 g) are anaesthetised by inhalation of an isoflurane/oxygen mixture to permit exposure of the jugular vein in order to permit administration of test compounds or vehicle in an injection volume of approximately 5 ml/kg i.v. Alternatively, test compounds may be administered orally or by subcutaneous or intraperitoneal routes. A skin incision is then made in the midline of the scalp to expose the skull. The selective NK-1 receptor agonist (e.g. GR73632 (d Ala[L-Pro^9,Me-Leu^10]-substance P-(7-11)) is infused directly into the cerebral ventricles (e.g. 3 pmol in 5 μl i.c.v., depending on test substance) by vertical insertion of a cuffed 27 gauge needle to a depth of 4.5 mm below bregma. The scalp incision is closed and the animal allowed to recover from anaesthesia in a clear perspex observation box (approximately 25 cm×20 cm×20 cm). The duration and/or intensity of hind foot tapping is then recorded continuously for approximately 5 minutes.

[2] = test system: cisplatin-induced emesis in ferrets; test: Ferret emesis (Assay 3); assay type: in vivo; conditions: p.o.
Procedure: ASSAY 3: Ferret Emesis Individually housed male ferrets (1.0-2.5 kg) are dosed orally by gavage with test compound. Ten minutes later they are fed with approximately 100 g of tinned cat food. At 60 minutes following oral dosing, cisplatin (10 mg/kg) is given i.v. via a jugular vein catheter inserted under a brief period of halothane anaesthesia. The catheter is then removed, the jugular vein ligated and the skin incision closed. The ferrets recover rapidly from the anaesthetic and are mobile within 10-20 minutes. The animals are observed continuously during recovery from the anaesthetic and for 4 hours following the cisplatin injection, after which time the animals are killed humanely. The numbers of retches and vomits occurring during the 4 hours after cisplatin administration are recorded by trained observers.

| SMILES | gerbil foot-tapping (5 mins.) ID50 [1] | gerbil foot-tapping (24 hrs.) ID50 [1] | ferret emesis ID90 [2] |
| --- | --- | --- | --- |
| C[C@@H](O[C@H]1OCCN(Cc2n[nH]c(=O)[nH]2)[C@H]1c1ccc(F)cc1)c1cc(C(F)(F)F)cc(C(F)(F)F)c1 [2-(R)-(1-(R)-(3,5-bis(trifluoromethyl)phenyl)-ethoxy)-3-(S)-(4-fluorophenyl)-4-(3-(5-oxo-1H,4H-1,2,4-triazolo)methyl)-morpholine] | ID50 = 0.36 mg/kg i.v. | ID50 = 0.33 mg/kg i.v. | ID90 < 3 mg/kg p.o. |
| C[C@@H](O[C@H]1OCCN(Cc2nn[nH]c2CN(C)C)[C@H]1c1ccccc1)c1cc(C(F)(F)F)cc(C(F)(F)F)c1 [2-(R)-(1-(R)-(3,5-bis(trifluoromethyl)phenyl)ethoxy)-4-(5-(N,N-dimethylamino)methyl-1,2,3-triazol-4-yl)methyl-3-(S)-phenylmorpholine] | ID50 = 0.12 mg/kg i.v. | ID50 = 0.17 mg/kg i.v. | – |
